Structures can show the parent of a compound that is named as a salt.
Legend:
[1] = Physical stability in crystalline form by thermogravimetric analysis (TGA); type: physicochemical; conditions: 55° C.; for weight loss vs time (TGA): crystalline form
Method: The physical stability of compounds of the present invention and dimethyl fumarate (DMF) were measured via thermogravimetric analysis (TGA).

[2] = Chemical stability of MMF prodrugs in pH 8 phosphate buffer; type: physicochemical; conditions: 50 mM buffer phosphate pH 8, 37° C., HPLC-UV, first-order decay
Method: Stock solutions of the compounds in acetonitrile or acetonitrile/MeOH were prepared at 0.05M. A 0.010 mL aliquot of the stock was spiked into 1 mL of 50 mM buffer phosphate pH 8 and incubated at 37° C. Typically, aliquots (0.010 mL) were sampled at different time points and immediately injected in the HPLC with UV detection (211 nm). The peak areas corresponding to the compounds were plotted against time and the data were fitted to a first-order mono-exponential decay where the rate constant and the half-life were determined from the slope (Table 2).

Row | weight loss (TGA) ([1]; in less than 2 hours) [%] | pH 8 (t½, min) [2] [min] | weight loss vs time (TGA) [1] | Structure (SMILES)
1 | ~100 | – | – | COC(=O)/C=C/C(=O)OC [DMF, dimethyl fumarate, reference compound]
2 | – | 143.5 | no change | COC(=O)/C=C/C(=O)OCCNS(C)(=O)=O [Compound 2, Methyl (2-(methylsulfonamido)ethyl) fumarate]
3 | – | 202 | – | COC(=O)/C=C/C(=O)OCCN1CCCS1(=O)=O [Compound 6, 2-(1,1-Dioxidoisothiazolidin-2-yl)ethyl methyl fumarate]
4 | – | 187 | no change | COC(=O)/C=C/C(=O)OCCN(C)S(C)(=O)=O [Compound 1, Methyl (2-(N-methylmethylsulfonamido)ethyl) fumarate]

Reference: patent US10301256B2, “Sulfonamide and sulfinamide prodrugs of fumarates and their use in treating various diseases” (Alkermes Pharma Ireland Limited, priority 2014, dated 2019)
